Results as given in US20070244173A1, “6,7-Dihydroxy-8-Phenyl-3,6,7,8-Tetrahydro-Chromeno [7,8-d] Imidazole Derivatives and Their Use as Gastric Acid Secretion Inhibitors” (Altana Pharma AG, priority 2004, published 2007).

Tests used:
[1] = test system: pentagastrin-stimulated acid secretion of the perfused rat stomach; assay: Secretion-inhibiting action on the perfused rat stomach (pentagastrin-stimulated acid secretion, intraduodenal administration in vivo); settings: iv, dose 2 μmol/kg i.d., anesthetized female CD rat, pentagastrin 1 μg/kg i.v. infusion
Source text: Testing of the Secretion-Inhibiting Action on the Perfused Rat Stomach
In Table A which follows, the influence of the compounds of the formula 1 according to the invention on the pentagastrin-stimulated acid secretion of the perfused rat stomach after intraduodenal administration in vivo is shown.
The abdomen of anesthetized rats (CD rat, female, 200-250 g; 1.5 g/kg i.m. urethane) was opened after tracheotomy by a median upper abdominal incision and a PVC catheter was fixed transorally in the esophagus and another via the pylorus such that the ends of the tubes just projected into the gastric lumen. The catheter leading from the pylorus led outward into the right abdominal wall through a side opening.
After thorough rinsing (about 50-100 ml), warm (37° C.) physiological NaCl solution was continuously passed through the stomach (0.5 ml/min, pH 6.8-6.9; Braun-Unita I). The pH (pH meter 632, glass electrode EA 147; φ=5 mm, Metrohm) and, by titration with a freshly prepared 0.01N NaOH solution to pH 7 (Dosimat 665 Metrohm), the secreted HCl were determined in the effluent in each case collected at an interval of 15 minutes.
The gastric secretion was stimulated by continuous infusion of […] (=1.65 ml/h) of i.v. pentagastrin (left femoral vein) about 30 min after the end of the operation (i.e. after determination of 2 preliminary fractions). The substances to be tested were administered intraduodenally in a 2.5 ml/kg liquid volume 60 min after the start of the continuous pentagastrin infusion. The body temperature of the animals was kept at a constant 37.8-38° C. by infrared irradiation and heat pads (automatic, stepless control by means of a rectal temperature sensor).

SMILES	melting point	inhibition in vivo at 2 µmol/kg [1]
COCCO[C@@H]1c2ccc3c(nc(C)n3C)c2O[C@H](c2ccccc2)[C@H]1OC(=O)CN(C)C [Example 8, (6R,7S,8R)-7-(2-Dimethylamino-acetoxy)-6-(2-methoxy-ethoxy)-2,3-dimethyl-8-phenyl-3,6,7,8-tetrahydro-chromeno[7,8-d]imidazole]	175 °C	> 50%
C=CCn1c(C)nc2c3c(ccc21)[C@@H](OCCOC)[C@H](O)[C@@H](c1ccccc1)O3 [Example 11, (6R,7S,8R)-3Allyl-7-hydroxy-6-(2-methoxy-ethoxy)-2-methyl-8-phenyl-3,6,7,8-tetrahydro-chromeno[7,8-d]imidazole]	79 °C	< 50%
Cc1nc2c3c(ccc2[nH]1)[C@H]1OCCO[C@@H]1[C@@H](c1ccccc1)O3 [Example 16, (5S,6R,10R)-16-Methyl-6-phenyl-2,3,5,6,10,17-hexahydro-1,4,7-trioxa-15,17-diaza-cyclopenta[a]phenanthrene]	260 °C	> 50%
Cc1nc2c3c(ccc2[nH]1)[C@@H](O)[C@H](O)[C@@H](c1ccccc1)O3 [Example 10, (6R,7S,8R)-6,7-Dihydroxy-2-methyl-8-phenyl-3,6,7,8-tetrahydro-chromeno[7,8-d]imidazole]	163 °C	–
COCCO[C@H]1c2ccc3c(nc(C4CC4)n3C)c2O[C@H](c2ccccc2)[C@H]1O [Example 22, (6S,7S,8R)-2-Cyclopropyl-7-hydroxy-6-(2-methoxy-ethoxy)-3-methyl-8-phenyl-3,6,7,8-tetrahydro-chromeno[7,8-d]imidazole]	133 °C	–
CC=Cn1c(C)nc2c3c(ccc21)[C@@H](OCCOC)[C@H](O)[C@@H](c1ccccc1)O3 [Example 12, (6R,7S,8R)-7-Hydroxy-6-(2-methoxy-ethoxy)-2-methyl-8-phenyl-3-propenyl-3,6,7,8-tetrahydro-chromeno[7,8-d]imidazole]	61 °C	–
C=CCn1c(C)nc2c3c(ccc21)[C@@H](OCCF)[C@H](O)[C@@H](c1ccccc1)O3 [Example 14, (6R,7S,8R)-3-Allyl-7-hydroxy-6-(2-fluoro-ethoxy)-2-methyl-8-phenyl-3,6,7,8-tetrahydro-chromeno[7,8-d]imidazole]	117 °C	–
Cc1nc2c3c(ccc2n1C)[C@H]1OCCO[C@@H]1[C@@H](c1ccccc1)O3 [Example 6, (5S,6R,10R)-16,17-Dimethyl-6-phenyl-2,3,5,6,10,17-hexahydro-1,4,7-trioxa-15,17-diaza-cyclopenta[a]phenanthrene]	307 °C	> 50%
COCCO[C@@H]1c2ccc3c(nc(C)n3C3CC3)c2O[C@H](c2ccccc2)[C@H]1O [Example 18, (6R,7S,8R)-3-Cyclopropyl-7-hydroxy-6-(2-methoxy-ethoxy)-2-methyl-8-phenyl-3,6,7,8-tetrahydro-chromeno[7,8-d]imidazole]	183 °C	< 50%
CC=Cn1c(C)nc2c3c(ccc21)[C@H]1OCCO[C@@H]1[C@@H](c1ccccc1)O3 [Example 15, (5S,6R,10R)-16-Methyl-6-phenyl-17-propenyl-2,3,5,6,10,17-hexahydro-1,4,7-trioxa-15,17-diaza-cyclopenta[a]phenanthrene]	213 °C	> 50%
Cc1nc2c3c(ccc2n1C)[C@@H](O)[C@H](O)[C@@H](c1ccccc1)O3 [Example 3, (6R,7S,8R)-6,7-Dihydroxy-2,3-dimethyl-8-phenyl-3,6,7,8-tetrahydro-chromeno[7,8-d]imidazole]	262.5 °C	< 50%
Cc1nc2c3c(ccc2n1C)[C@@H](OCC(F)F)[C@H](O)[C@@H](c1ccccc1)O3 [Example 9, (6R,7S,8R)-7-Hydroxy-6-(2,2-difluoro-ethoxy)-2,3-dimethyl-8-phenyl-3,6,7,8-tetrahydro-chromeno[7,8-d]imidazole]	249 °C	> 50%
COCCO[C@H]1c2ccc3c(nc(C)n3C3CC3)c2O[C@H](c2ccccc2)[C@H]1O [Example 19, (6S,7S,8R)-3-Cyclopropyl-7-hydroxy-6-(2-methoxy-ethoxy)-2-methyl-8-phenyl-3,6,7,8-tetrahydro-chromeno[7,8-d]imidazole]	218 °C	> 50%
COCCO[C@@H]1c2ccc3c(nc(C)n3C)c2O[C@H](c2ccccc2)[C@H]1O [Example 1, (6R,7S,8R)-7-Hydroxy-6-(2-methoxy-ethoxy)-2,3-dimethyl-8-phenyl-3,6,7,8-tetrahydro-chromeno[7,8-d]imidazole]	–	> 50%
Cc1nc2c3c(ccc2n1C)[C@@H](OCCF)[C@H](O)[C@@H](c1ccccc1)O3 [Example 5, (6R,7S,8R)-6-(2-Fluoro-ethoxy)-7-hydroxy-2,3-dimethyl-8-phenyl-3,6,7,8-tetrahydro-chromeno[7,8-d]imidazole]	226 °C	> 50%
COCCO[C@@H]1c2ccc3c(nc(C4CC4)n3C)c2O[C@H](c2ccccc2)[C@H]1O [Example 21, (6R,7S,8R)-2-Cyclopropyl-7-hydroxy-6-(2-methoxy-ethoxy)-3-methyl-8-phenyl-3,6,7,8-tetrahydro-chromeno[7,8-d]imidazole]	157 °C	–
Cc1nc2c3c(ccc2n1C1CC1)[C@@H](O)[C@H](O)[C@@H](c1ccccc1)O3 [Example 17, (6R,7S,8R)-3-Cyclopropyl-6,7-dihydroxy-2-methyl-8-phenyl-3,6,7,8-tetrahydro-chromeno[7,8-d]imidazole]	–	< 50%
COCCO[C@@H]1c2ccc3c(nc(C)n3C)c2O[C@H](c2ccccc2)[C@H]1OC(=O)COC [Example 7, (6R,7S,8R)-7-(2-Methoxy-acetoxy)-6-(2-methoxy-ethoxy)-2,3-dimethyl-8-phenyl-3,6,7,8-tetrahydro-chromeno[7,8-d]imidazole]	200 °C	> 50%
COCCO[C@H]1c2ccc3c(nc(C)n3C)c2O[C@H](c2ccccc2)[C@H]1O [Example 2, (6S,7S,8R)-7-Hydroxy-6-(2-methoxy-ethoxy)-2,3-dimethyl-8-phenyl-3,6,7,8-tetrahydro-chromeno[7,8-d]imidazole]	163 °C	< 50%
CCO[C@@H]1c2ccc3c(nc(C)n3C)c2O[C@H](c2ccccc2)[C@H]1O [Example 4, (6R,7S,8R)-6-Ethoxy-7-hydroxy-2,3-dimethyl-8-phenyl-3,6,7,8-tetrahydro-chromeno[7,8-d]imidazole]	222 °C	> 50%
COCCO[C@@H]1c2ccc3[nH]c(C)nc3c2O[C@H](c2ccccc2)[C@H]1O [Example 13, (6R,7S,8R)-7-Hydroxy-6-(2-methoxy-ethoxy)-2-methyl-8-phenyl-3,6,7,8-tetrahydro-chromeno[7,8-d]imidazole]	117 °C	–
